We go through two compounds from US20240182466A1, “A Crystal Form of a Fluorine-substituted Pyridopyrazole Compound and a Preparation Method Thereof” (JUMBO DRUG BANK CO., LTD, priority 2021, published 2024).

A short description of series [1]: Solid stability test of crystal form (XRPD). To be noted: influencing factors and accelerated conditions. It counts as physicochemical. As to the method: According to the “Guiding Principles for Stability Test of Raw Materials and Preparations” (General Rule 9001 of Part Four of the Chinese Pharmacopoeia 2015 Edition), the stability of the crystal form A of the compound in Formula (I) was investigated under influencing factors ((high temperature (60° C., open), high humidity (room temperature/relative humidity 92.5%, open), strong light (visible light intensity of 5000 lux and ultraviolet intensity of […], open), and accelerated conditions (40° C./75% RH, open) and (60° C./75% RH, open)).
About 20 mg of the crystal form A of the compound in Formula (I) was weighed respectively, and it was placed at the bottom of a glass sample bottle, and spread into a thin layer. Its sample was completely exposed for sampling. The samples placed under different conditions were sampled for testing (XRPD) on day 5, day 10, 1 month, 2 months, and 3 months.

Series [2] is described as follows: Hygroscopicity by dynamic vapor sorption (DVS). To be noted: 80% RH/25° C. The series is classed as physicochemical. As to the method:
Instrument model: SMS DVS Intrinsic Plus dynamic steam adsorption instrument.
Test condition: a sample (10-20 mg) is taken and placed in a DVS sample tray for testing.
Detailed DVS parameters are as follows:
Balance: dm/dt=0.002%/min (minimum: 10 min, and maximum: 180 min).
Drying: it is dried at 0% relative humidity (RH) until dm/dt≤0.002%/min or maximum 180 min.
RH (%) test step range: 0%-95%-0%.
SMS DVS Intrinsic Plus dynamic steam adsorption instrument.
A sample (10-20 mg) was taken and placed in a DVS sample tray for testing.

The target of the next series is ITK (Homo sapiens (Human), UniProt Q08881). Nature of the series: ITK kinase test (33P-ATP filter binding). It counts as biochemical. How it is done: (§1) Experimental example 1: EGFR, ITK, TEC, and BTK kinase'test.
(§2) Buffer condition: 20 mM HEPES(pH 7.5), 10 mM MgCl2, 1 mM EGTA, 0.02% Brij35, 0.02 mg/mL BSA, 0.1 mm Na3VO4, 2 mm; DTT, 1% DMSO.
(§3) 2.1. An indicator substrate was prepared in a reaction buffer prepared newly.
(§4) 2.2. A cofactor required was transferred to the substrate solution above.
(§5) 2.3. A kinase indicated was injected into the substrate solution and mixed gently.
(§6) 2.4. An acoustic technology was used to convey a compound in DMSO to a kinase reaction mixture (Echo550).
(§7) 2.5. ^33P-ATP (specific activity 0.01 μci/μL, finally) was fed into the reaction mixture to initiate a reaction. (ATP final concentrations were 2 μM, 5 μM, and 5 μM respectively).
(§8) 2.6. The kinase reaction was incubated at room temperature for 120 min.
(§9) 2.7. The reaction was recorded on P81 ion exchange paper (Whatman #3698-915).
(§10) 2.8. 0.75% phosphoric acid was widely used to clean a filter.
(§11) 2.9. The remaining radioactive phosphorylation substrate on filter paper was measured.
(§12) 3. Data analysis: the kinase activity data was expressed as a percentage of the remaining kinase activity in the test sample compared to the carrier (dimethyl sulfoxide) reaction. The IC50 value and curve fitting were obtained by using Prism4 software (GraphPad).

The target in a further series is EGFR (Homo sapiens (Human), UniProt P00533). Nature of the series: EGFR kinase test (33P-ATP filter binding). It counts as biochemical. How it is done: as §1, §2, §3, §4, §5, §6, §7, §8, §9, §10, §11, §12
A further series addresses BTK (Homo sapiens (Human), UniProt Q06187). Nature of the series: BTK kinase test (33P-ATP filter binding). To be noted: 120 min at room temperature. It counts as biochemical. As to the method: as §1, §2, §3, §4, §5, §6, §7, §8, §9, §10, §11, §12
For another series, the target named is TEC (Homo sapiens (Human), UniProt P42680). The series is described as follows: TEC kinase test (33P-ATP filter binding). The series is classed as biochemical. As to the method: as §1, §2, §3, §4, §5, §6, §7, §8, §9, §10, §11, §12
Setting [3] is: 33P-ATP, 120 min at room temperature.

TEC, sequence (P42680 whole entry): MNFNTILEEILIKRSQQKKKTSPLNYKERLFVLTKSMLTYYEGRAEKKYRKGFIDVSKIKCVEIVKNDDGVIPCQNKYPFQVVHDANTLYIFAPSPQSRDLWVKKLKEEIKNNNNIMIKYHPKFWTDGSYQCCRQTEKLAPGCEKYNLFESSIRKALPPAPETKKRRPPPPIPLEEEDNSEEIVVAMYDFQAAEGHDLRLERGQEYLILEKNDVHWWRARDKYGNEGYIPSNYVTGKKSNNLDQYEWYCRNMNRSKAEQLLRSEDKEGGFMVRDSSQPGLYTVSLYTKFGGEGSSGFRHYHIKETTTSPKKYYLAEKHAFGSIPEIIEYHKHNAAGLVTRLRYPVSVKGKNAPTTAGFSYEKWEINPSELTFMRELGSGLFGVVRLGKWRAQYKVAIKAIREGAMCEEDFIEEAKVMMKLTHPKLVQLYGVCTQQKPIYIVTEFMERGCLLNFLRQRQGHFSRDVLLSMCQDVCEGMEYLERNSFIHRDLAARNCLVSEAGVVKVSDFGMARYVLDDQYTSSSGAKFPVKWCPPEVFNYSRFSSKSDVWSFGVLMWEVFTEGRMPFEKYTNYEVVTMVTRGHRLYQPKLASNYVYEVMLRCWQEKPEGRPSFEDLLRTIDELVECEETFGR
EGFR, sequence (P00533 25-1210): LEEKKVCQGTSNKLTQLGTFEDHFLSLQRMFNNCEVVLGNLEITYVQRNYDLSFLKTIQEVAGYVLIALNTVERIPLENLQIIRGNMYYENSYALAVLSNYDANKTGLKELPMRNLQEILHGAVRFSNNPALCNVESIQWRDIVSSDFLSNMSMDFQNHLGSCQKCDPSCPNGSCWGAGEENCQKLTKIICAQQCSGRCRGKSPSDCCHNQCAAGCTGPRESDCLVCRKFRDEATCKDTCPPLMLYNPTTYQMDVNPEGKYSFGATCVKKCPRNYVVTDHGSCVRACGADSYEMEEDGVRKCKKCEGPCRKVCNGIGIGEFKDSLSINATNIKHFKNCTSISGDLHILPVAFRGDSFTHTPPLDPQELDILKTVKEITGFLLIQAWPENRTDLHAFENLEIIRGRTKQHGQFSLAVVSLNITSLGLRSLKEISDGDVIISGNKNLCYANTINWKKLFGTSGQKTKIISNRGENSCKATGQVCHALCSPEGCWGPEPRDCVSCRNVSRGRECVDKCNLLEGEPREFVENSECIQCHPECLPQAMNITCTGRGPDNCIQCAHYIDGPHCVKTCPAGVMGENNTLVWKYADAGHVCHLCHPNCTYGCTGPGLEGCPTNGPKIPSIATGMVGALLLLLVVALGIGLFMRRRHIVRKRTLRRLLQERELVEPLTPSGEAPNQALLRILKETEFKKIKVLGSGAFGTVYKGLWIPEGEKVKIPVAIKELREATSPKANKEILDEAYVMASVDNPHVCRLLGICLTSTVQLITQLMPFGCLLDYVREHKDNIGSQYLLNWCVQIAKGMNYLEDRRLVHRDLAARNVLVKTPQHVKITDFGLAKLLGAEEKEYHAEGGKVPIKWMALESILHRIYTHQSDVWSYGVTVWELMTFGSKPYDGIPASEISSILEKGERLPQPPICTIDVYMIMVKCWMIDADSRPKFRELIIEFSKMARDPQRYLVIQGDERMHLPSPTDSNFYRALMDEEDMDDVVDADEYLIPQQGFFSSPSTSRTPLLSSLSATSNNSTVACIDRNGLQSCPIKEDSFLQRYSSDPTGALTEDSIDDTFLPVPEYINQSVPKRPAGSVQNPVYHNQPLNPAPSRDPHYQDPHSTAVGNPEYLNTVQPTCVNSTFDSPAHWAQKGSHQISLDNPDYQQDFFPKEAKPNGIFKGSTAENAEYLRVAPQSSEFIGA
ITK, sequence (Q08881 whole entry): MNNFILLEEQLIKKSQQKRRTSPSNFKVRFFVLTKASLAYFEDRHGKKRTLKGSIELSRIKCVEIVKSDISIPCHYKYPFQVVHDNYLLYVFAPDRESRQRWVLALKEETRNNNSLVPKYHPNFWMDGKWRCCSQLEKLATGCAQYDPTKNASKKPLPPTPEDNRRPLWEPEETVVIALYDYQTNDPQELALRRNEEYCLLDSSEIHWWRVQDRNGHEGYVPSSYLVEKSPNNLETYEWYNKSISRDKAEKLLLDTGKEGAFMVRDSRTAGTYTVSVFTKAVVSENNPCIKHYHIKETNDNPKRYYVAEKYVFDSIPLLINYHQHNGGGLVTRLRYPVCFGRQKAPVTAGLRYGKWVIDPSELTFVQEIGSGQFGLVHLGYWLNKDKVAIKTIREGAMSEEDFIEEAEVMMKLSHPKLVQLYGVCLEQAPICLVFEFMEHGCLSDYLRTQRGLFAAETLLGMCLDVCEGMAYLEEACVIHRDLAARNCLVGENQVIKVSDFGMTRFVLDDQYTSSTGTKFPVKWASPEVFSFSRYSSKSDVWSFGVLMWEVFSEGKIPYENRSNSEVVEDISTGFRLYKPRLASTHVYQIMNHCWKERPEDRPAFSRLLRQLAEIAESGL
BTK, sequence (Q06187 whole entry): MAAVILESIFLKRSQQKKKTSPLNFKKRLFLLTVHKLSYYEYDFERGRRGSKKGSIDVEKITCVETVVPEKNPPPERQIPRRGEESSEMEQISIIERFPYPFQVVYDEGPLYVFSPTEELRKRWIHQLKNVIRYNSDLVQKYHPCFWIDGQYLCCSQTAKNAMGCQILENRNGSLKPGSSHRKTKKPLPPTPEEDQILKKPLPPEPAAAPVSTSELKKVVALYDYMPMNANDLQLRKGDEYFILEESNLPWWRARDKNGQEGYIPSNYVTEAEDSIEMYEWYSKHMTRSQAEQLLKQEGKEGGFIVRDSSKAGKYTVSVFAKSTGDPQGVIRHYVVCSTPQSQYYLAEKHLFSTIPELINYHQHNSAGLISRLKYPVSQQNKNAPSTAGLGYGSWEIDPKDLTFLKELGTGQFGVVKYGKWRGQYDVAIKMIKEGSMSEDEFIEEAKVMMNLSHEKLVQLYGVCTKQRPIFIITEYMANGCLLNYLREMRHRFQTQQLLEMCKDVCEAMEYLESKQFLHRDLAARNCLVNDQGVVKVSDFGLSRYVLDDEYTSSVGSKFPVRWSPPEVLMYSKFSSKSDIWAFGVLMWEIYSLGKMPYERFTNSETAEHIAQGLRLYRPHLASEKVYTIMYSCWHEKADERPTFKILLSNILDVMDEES

On to `C=CC(=O)N1CCC[C@@H](c2nn(-c3ccc(Oc4cccc(F)c4F)cc3)c3cncc(F)c23)C1`, for which the “Solid stability, conclusion in words” value in series [1] is “good stability”. Moreover, in series [2], the Hygroscopic classification entry is listed as “slight hygroscopicity” and the “ΔW, hygroscopic weight increase” value was 0.23%.

In the case of `C=CC(=O)N1CCC[C@H](c2nn(-c3ccc(Oc4cccc(F)c4F)cc3)c3cncc(F)c23)C1` (single isomer, unassigned) [Compound 1B], the concentration for half-maximal inhibition (IC50) at ITK (setting [3]) was 5430 nM; at EGFR (setting [3]), 829 nM; at BTK it was 2.16 nM; at TEC (setting [3]) it was 74.8 nM. Further, on ITK (IC50 ITK / IC50 BTK), the “EGFR, ITK, TEC, and BTK activity ratio: ITK to BTK” value was 2513 times,. Also, the “EGFR, ITK, TEC, and BTK activity ratio: EGFR to BTK” value on EGFR (IC50 EGFR / IC50 BTK) is 383 times,. Moreover, at TEC (IC50 TEC / IC50 BTK), the “EGFR, ITK, TEC, and BTK activity ratio: TEC to BTK” value was determined as 34 times.

As usually defined, the IC50 is the midpoint of a concentration-inhibition curve. A lower IC50 goes with greater potency in that assay.
